In ChEMBL document CHEMBL3046634, “Synthesis of some 1,3,4-thiadiazole derivatives as inhibitors of Entamoeba histolytica” (Med Chem Res, 2013):

Columns and labels:
MCF7 = assay: Cytotoxicity against Homo sapiens (human) MCF7 cells after 48 hr by MTT assay; assay type: cell-based; settings: MCF7, 48 h
Entamoeba histolytica = assay: Antiamoebic activity against trophozoites of Entamoeba histolytica HM-1:IMSS after 72 hr by eosin stain-based spectrophotometric analysis; assay type: functional, organism-based

Row | IC50 (Entamoeba histolytica) [µM] | Structure (SMILES) | IC50 (MCF7) [µM]
1 |  | Cc1ncc([N+](=O)[O-])n1CCO [METRONIDAZOLE] | > 250
2 | 5.46 | Nc1nnc(-c2ccccc2)s1 | 
